Assay results from patent publication US9637787B2, “Culture based screening assay and methods of use thereof to identify agents which modulate tumor development, invasion and differentiation” (The Trustees of the University of Pennsylvania, priority 2007, dated 2017).

What was measured:
periostin = experiment: Western blot of periostin expression in cell lysates; format: cell-based, human; details: EPC2-hTERT-EGFR-p53^R175H cells, 24 h treatment; EGF 10 ng/μl, AG1478 1 μM, 5-iminodaunorubicin 3 μM
Description: FIG. 24: Periostin expression is dependent upon EGFR signaling and mutant p53 activation (A) Western blot analysis of periostin (90 kDa) in EPC2-hTERT-EGFR-p53^R175H, EPC2-hTERT-puro-neo, EPC2-hTERT-EGFR-neo and EPC2-hTERT-neo-p53^R175H cells. (B) Western blot analysis of periostin expression in EPC2-hTERT-EGFR-p53^R175H cell lysates after 24 h treatment with EGF (10 ng/μl), EGFR inhibitor AG1478 (1 μM) and 5-iminodaunorubicin (3 μM). Immunoblotting for total EGFR and phosphorylated EGFR to confirm inhibition of EGFR as well as p21 to indicate restoration of wildtype p53 signaling. β-actin was used as a loading control. Densitometry ratios of periostin/β-actin were calculated and recorded.
(§1) For Western blot analysis, cells were lysed in lysis buffer (10 mM Tris-HCl, pH 7.4, 150 mM NaCl, 1% Nonidet P-40, 0.1% sodium deoxycholate, 0.1% SDS, 1 mM EDTA, 2 mM sodium orthovanadate and a protease inhibitor tablet, Roche Molecular Biochemicals, Indianapolis, Ind.). Protein concentration was determined by the Bio-Rad protein assay (Bio-Rad, Hercules, Calif.). 15 μg of protein were run on a 4-12% SDS-PAGE gel (Invitrogen™) and transferred to a polyvinylidene difluoride membrane (Immobilon-P®, Millipore, Bedford, Mass.). Membranes were blocked in 5% nonfat milk (Bio-Rad) in TBS-T (10 mM Tris, 150 mM NaCl, pH 8.0 and 0.1% Tween® 20) for 1 h at room temperature. Membranes were then probed with primary antibody diluted in 5% milk in TBS-T overnight at 4° C., washed with TBS-T and incubated with anti-mouse or anti-rabbit horseradish peroxidase-conjugated secondary antibodies (GE Biotech, 1:3000 in TBS-T) for 1 h at room temperature and washed in TBS-T. The signal was visualized using an enhanced chemiluminescence solution (ECL Plus, Amersham™ Pharmacia Biotech) and exposed to Blue Lite Autorad film (ISC-BioExpress, Kaysville, Utah). To confirm secreted periostin expression, conditioned media was collected and protein concentration was determined by Bio-Rad protein assay (Bio-Rad) and Western blot analysis was performed as described above.

Met = Met phosphorylation in EPC-hTERT-EGFR-p53^R175H cells; format: cell-based, human; details: data not shown
Description: as §1

MMP-1 = target: T1, MMP-1 (Homo sapiens, UniProt P03956); details: cited from earlier work
T1 sequence (P03956 100-469): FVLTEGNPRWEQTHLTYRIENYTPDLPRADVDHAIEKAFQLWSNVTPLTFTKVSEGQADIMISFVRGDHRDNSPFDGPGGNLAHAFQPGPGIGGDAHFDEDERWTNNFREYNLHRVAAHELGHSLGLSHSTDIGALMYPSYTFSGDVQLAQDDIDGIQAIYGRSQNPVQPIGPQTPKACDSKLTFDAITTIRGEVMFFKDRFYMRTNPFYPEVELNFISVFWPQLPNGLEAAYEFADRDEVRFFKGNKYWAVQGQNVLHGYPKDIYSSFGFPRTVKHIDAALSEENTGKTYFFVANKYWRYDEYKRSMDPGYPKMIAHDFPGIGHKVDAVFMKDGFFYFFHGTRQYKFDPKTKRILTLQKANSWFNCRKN

[1] = test system: EPC-hTERT-EGFR-p53^R175H cells; experiment: matrix invasion in 3D organotypic culture above FEF3 fetal esophageal fibroblast matrices; format: cell-based, human; details: 100 nM
Description: (§2) (A) Fluorescence measurements representing invading cells on the bottom filters of a Matrigel®-coated Boyden chamber where HGF was added as the chemoattractant of EPC-hTERT-EGFR-p53^R175H cells seeded atop the filter. (B) Level of secreted HGF in conditioned media from FEF3 fibroblasts±HGF siRNA set up in organotypic culture and detected by ELISA. (C) H&E sections of organotypic cultures of FEF3 fibroblasts±HGF siRNA seeded into the matrix with EPC-hTERT-EGFR-p53^R175H grown above (scale bar=100 μm). (D) Quantification of invasion in entire organotypic culture imaged in (C). Error bars represent ±SEM and * indicates p values ≦0.05 when compared to the control.
(A) Western blot of EPC-hTERT-EGFR-p53^R175HshMet or EPC-hTERT-EGFR-p53^R175H shScramble cells (two independent lines of each genotype) to determine extent of Met knockdown of total protein and activation state. (B) H&E sections of organotypic culture of EPC-hTERT-EGFR-p53^R175H-shMet or EPC-hTERT-EGFRp53^R175H-shScramble cells seeded above matrices containing FEF3 fetal esophageal fibroblasts. (C) H&E sections of organotypic cultures of EPC-hTERT-EGFR-p53^R175H cells seeded above FEF3 matrices treated with DMSO vehicle (days 7-15) or 100 nM PHA665752 (days 7-15 or day 11-15) as indicated. […]

[2] = test system: EPC-hTERT-EGFR-p53^R175H cells; experiment: Matrigel-coated Boyden chamber invasion assay with chemoattractant; format: cell-based, human; details: HGF added as chemoattractant
Description: as §2
For migration assays, Boyden chambers (8 μm pore size, FluoroBlok-HTS inserts, BD Biosciences) were used. For invasion assays, insert-plates (8 μm pore size, FluoroBlock, 24 well insert) coated with BD Matrigel® matrix were used. Inserts were placed in a 24-well plate containing Full KSFM medium with serum to stimulate cell migration and invasion. 5×10^4 cells in serum-free medium were placed in each insert. Twenty-four hours later, migrating or invading cells were labeled with 4 μg/ml Calcein AM dye (Invitrogen™) in HANKS buffer for 1 hour. The labeled cells were then read on a Synergy HT multi-detection microplate reader (BIOTEK®, Woburn, Mass.) at 485 nm excitation and 528 nm detection. […]

COc1cccc2c1C(=N)c1c(O)c3c(c(O)c1C2=O)C[C@@](O)(C(C)=O)C[C@@H]3O[C@H]1C[C@H](N)[C@H](O)[C@H](C)O1 [5-iminodaunorubicin]
periostin protein expression (periostin): decreased

COc1cc2ncnc(Nc3cccc(Cl)c3)c2cc1OC [AG1478]
periostin protein expression (periostin): decreased | Met phosphorylation (Met): nor was Met phosphorylation inhibited

CCN(CC)Cc1cc(C)c(N(Cc2ccccc2)S(=O)(=O)c2ccc(OC)cc2)c(C(=O)NO)c1 [MMP-9 inhibitor]
IC50 (MMP-1): 1.05 µM

Cc1[nH]c(/C=C2\C(=O)Nc3ccc(S(=O)(=O)Cc4c(Cl)cccc4Cl)cc32)c(C)c1C(=O)N1CCC[C@@H]1CN1CCCC1 [PHA665752]
invasion of EPC-hTERT-EGFR-p53^R175H cells in organotypic culture ([1]; treated for seven days following epithelial cell seeding (days 7-15)): inhibited invasion | invasion of EPC-hTERT-EGFR-p53^R175H cells in organotypic culture ([1]; treated for the final four days when invasion occurs (day 11-15)): inhibited invasion

EGF: epidermal growth factor used to stimulate EGFR
periostin protein expression (periostin): increased periostin protein expression

HGF: Recombinant human HGF purchased from R&D Systems
levels of invading cells [2]: significantly increased levels of invading
